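Dose response: 5 concentrations. Exposure: 48 h. Format: 96-well plates. Endpoint: linear interpolation; highest concentration if not reached. TGI marks complete inhibition of growth.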
Tests used:
Experiment in all cases: growth of human tumour cells (NCI), 48 h
OVCAR-5 ovarian = tested on: OVCAR-5 ovarian
SNB-19 CNS = tested on: SNB-19 CNS
COLO 205 colon = tested on: COLO 205 colon
T-47D breast = tested on: T-47D breast
A549 NSCLC = tested on: A549 NSCLC
SN12C renal = tested on: SN12C renal
NCI-H522 lung = tested on: NCI-H522 lung
PC-3 prostate = tested on: PC-3 prostate
UACC-257 melanoma = tested on: UACC-257 melanoma
HT29 colon = tested on: HT29 colon
SK-OV-3 ovarian = tested on: SK-OV-3 ovarian
IGROV1 ovarian = tested on: IGROV1 ovarian
NCI/ADR-RES ovarian = tested on: NCI/ADR-RES ovarian
RXF 393 renal = tested on: RXF 393 renal
U251 CNS = tested on: U251 CNS
CCRF-CEM leukemia = tested on: CCRF-CEM leukemia
OVCAR-8 ovarian = tested on: OVCAR-8 ovarian
NCI-H460 lung = tested on: NCI-H460 lung
UO-31 renal = tested on: UO-31 renal
SF-295 CNS = tested on: SF-295 CNS
MOLT-4 leukemia = tested on: MOLT-4 leukemia
SW-620 colon = tested on: SW-620 colon
SF-268 CNS = tested on: SF-268 CNS
M14 melanoma = tested on: M14 melanoma
SK-MEL-2 melanoma = tested on: SK-MEL-2 melanoma
HCT-15 colon = tested on: HCT-15 colon
786-0 renal = tested on: 786-0 renal
SK-MEL-5 melanoma = tested on: SK-MEL-5 melanoma
MALME-3M melanoma = tested on: MALME-3M melanoma
SK-MEL-28 melanoma = tested on: SK-MEL-28 melanoma
DU-145 prostate = tested on: DU-145 prostate
HCT-116 colon = tested on: HCT-116 colon
MDA-MB-231 breast = tested on: MDA-MB-231 breast
SF-539 CNS = tested on: SF-539 CNS
RPMI-8226 leukemia = tested on: RPMI-8226 leukemia
HOP-92 NSCLC = tested on: HOP-92 NSCLC
K-562 leukemia = tested on: K-562 leukemia
HS 578T breast = tested on: HS 578T breast
MDA-N = tested on: MDA-N
HOP-62 NSCLC = tested on: HOP-62 NSCLC
HL-60(TB) leukemia = tested on: HL-60(TB) leukemia
OVCAR-4 ovarian = tested on: OVCAR-4 ovarian
KM12 colon = tested on: KM12 colon
BT-549 breast = tested on: BT-549 breast
SR leukemia = tested on: SR leukemia
NCI-H23 lung = tested on: NCI-H23 lung
SNB-75 CNS = tested on: SNB-75 CNS
TK-10 renal = tested on: TK-10 renal
LOX IMVI melanoma = tested on: LOX IMVI melanoma
MCF7 breast = tested on: MCF7 breast
NCI-H226 lung = tested on: NCI-H226 lung
CAKI-1 renal = tested on: CAKI-1 renal
UACC-62 melanoma = tested on: UACC-62 melanoma
HCC-2998 colon = tested on: HCC-2998 colon
A498 renal = tested on: A498 renal
OVCAR-3 ovarian = tested on: OVCAR-3 ovarian
EKVX NSCLC = tested on: EKVX NSCLC
MDA-MB-435 = tested on: MDA-MB-435
ACHN renal = tested on: ACHN renal

Measured: TGI

Cc1ccc(S(=O)(=O)NC(=O)NC(Cc2ccc(O)cc2)C(=O)O)cc1 (centres undefined)
> 100 µM: OVCAR-5 ovarian | SNB-19 CNS | COLO 205 colon | T-47D breast | A549 NSCLC | SN12C renal | NCI-H522 lung | PC-3 prostate | UACC-257 melanoma | HT29 colon | SK-OV-3 ovarian | IGROV1 ovarian | NCI/ADR-RES ovarian | RXF 393 renal | U251 CNS | CCRF-CEM leukemia | OVCAR-8 ovarian | NCI-H460 lung | UO-31 renal | SF-295 CNS | MOLT-4 leukemia | SW-620 colon | SF-268 CNS | M14 melanoma | SK-MEL-2 melanoma | HCT-15 colon | 786-0 renal | SK-MEL-5 melanoma | MALME-3M melanoma | SK-MEL-28 melanoma | DU-145 prostate | HCT-116 colon | MDA-MB-231 breast | SF-539 CNS | RPMI-8226 leukemia | HOP-92 NSCLC | K-562 leukemia | HS 578T breast | MDA-N | HOP-62 NSCLC | HL-60(TB) leukemia | OVCAR-4 ovarian | KM12 colon | BT-549 breast | SR leukemia | NCI-H23 lung | SNB-75 CNS | TK-10 renal | LOX IMVI melanoma

CCN1C/C(=C\c2ccc(Cl)cc2)c2nc(N)c(C#N)c(-c3ccc(Cl)cc3)c2C1
> 100 µM: OVCAR-5 ovarian | SNB-19 CNS | COLO 205 colon | MCF7 breast | NCI-H226 lung | CAKI-1 renal | A549 NSCLC | NCI-H522 lung | PC-3 prostate | UACC-62 melanoma | UACC-257 melanoma | HT29 colon | SK-OV-3 ovarian | IGROV1 ovarian | NCI/ADR-RES ovarian | HCC-2998 colon | RXF 393 renal | A498 renal | U251 CNS | CCRF-CEM leukemia | OVCAR-8 ovarian | NCI-H460 lung | UO-31 renal | SF-295 CNS | MOLT-4 leukemia | SW-620 colon | SF-268 CNS | M14 melanoma | SK-MEL-2 melanoma | HCT-15 colon | 786-0 renal | SK-MEL-5 melanoma | MALME-3M melanoma | SK-MEL-28 melanoma | DU-145 prostate | HCT-116 colon | OVCAR-3 ovarian | EKVX NSCLC | MDA-MB-231 breast | RPMI-8226 leukemia | K-562 leukemia | HS 578T breast | MDA-MB-435 | ACHN renal | MDA-N | HOP-62 NSCLC | HL-60(TB) leukemia | OVCAR-4 ovarian | KM12 colon | BT-549 breast | SR leukemia | NCI-H23 lung | SNB-75 CNS | TK-10 renal | LOX IMVI melanoma

Reference: PubChem BioAssay (NCI)
